Laboratory results as given in US12478066B2, “Pesticidal mixtures” (BASF SE, priority 2019, dated 2025).

Assays:
Type in all cases: cell-based
Leptosphaeria nodorum = experiment: Microtest: activity against wheat leaf spots caused by Leptosphaeria nodorum (LEPTNO); details: 7 days after inoculation
Method: (§1) The active compounds were formulated separately as a stock solution having a concentration of 10000 ppm in dimethyl sulfoxide.
(§2) The stock solutions were mixed according to the ratio, pipetted onto a micro titer plate (MTP) and diluted with water to the stated concentrations. A spore suspension of Leptosphaeria nodorum in an aqueous biomalt or yeast-bactopeptone-glycerine or DOB solution was then added. The plates were placed in a water vapor-saturated chamber at a temperature of 18° C. Using an absorption photometer, the MTPs were measured at 405 nm 7 days after the inoculation.
(§3) The measured parameters were compared to the growth of the active compound-free control variant (100%) and the fungus-free blank value to determine the relative growth in % of the pathogens in the respective active compounds.
(§4) These percentages were converted into efficacies.
(§5) An efficacy of 0 means that the growth level of the pathogens corresponds to that of the untreated control; an efficacy of 100 means that the pathogens were not growing.
(§6) The expected efficacies of active compound mixtures were determined using Colby's formula [R. S. Colby, “Calculating synergistic and antagonistic responses of herbicide combinations”, Weeds 15, 20-22 (1967)] and compared with the observed efficacies.

Rhynchosporium secalis = experiment: Microtest: activity against Rhynchosporium secalis (RHYNSE); details: 7 days after inoculation
Method: as §1
as §2, with “Rhynchosporium secalis” for “Leptosphaeria nodorum”
as §3, §4, §5, §6

[1] = tested on: Qoi resistant isolate of Septoria tritici; experiment: Microtest: activity against leaf blotch on wheat caused by Septoria tritici (SEPTTR), Qoi resistant isolate; details: 7 days after inoculation
Method: as §1
as §2, with “a Qoi resistant isolate of Septoria tritici” for “Leptosphaeria nodorum”
as §3, §4, §5, §6

Microdochium nivale = experiment: Microtest: activity against Microdochium nivale (MONGNI); details: 7 days after inoculation
Method: as §1
as §2, with “Microdochium nivale” for “Leptosphaeria nodorum”
as §3, §4, §5, §6

[2] = tested on: Qoi resistant isolate of Pyrenophora teres; experiment: Microtiter test: activity against net blotch Pyrenophora teres on barley (PYRNTE), Qoi resistant isolate; details: 0.063 ppm, 7 days after inoculation
Method: as §1
as §2, with “a Qoi resistant isolate of Pyrenophora teres” for “Leptosphaeria nodorum”
as §3, §4, §5, §6

| Compound | Observed efficacy (Leptosphaeria nodorum; 0.004 ppm) | Observed efficacy (Rhynchosporium secalis; 0.063 ppm) | Observed efficacy ([1]; 0.016 ppm) | Observed efficacy ([1]; 0.063 ppm) | Observed efficacy (Microdochium nivale; 0.004 ppm) | Observed efficacy (Microdochium nivale; 0.016 ppm) | Observed efficacy (Microdochium nivale; 0.063 ppm) | Observed efficacy [2] | Observed efficacy (Leptosphaeria nodorum; 0.016 ppm) | Observed efficacy (Rhynchosporium secalis; 0.016 ppm) | Observed efficacy ([1]; 0.004 ppm) |
| --- | --- | --- | --- | --- | --- | --- | --- | --- | --- | --- | --- |
| COc1ccnc(C(=O)N[C@@H](C)C(=O)O[C@@H](C)C(c2ccc(F)cc2)c2ccc(F)cc2)c1OC(C)=O [Florylpicoxamid, [(1S)-2,2-bis(4-fluorophenyl)-1-methyl-ethyl] (2S)-2-[(3-acetoxy-4-methoxy-pyridine-2-carbonyl)amino]propanoate] | 13 | 55 | 0 | 12 | 3 | 18 | 44 | 9 |  |  |  |
| Cc1cccc(-n2nnn(C)c2=O)c1COc1ccn(-c2ccc(Cl)cc2)n1 [Metyltetraprol, 1-[2-[[1-(4-chlorophenyl)pyrazol-3-yl]oxymethyl]-3-methyl-phenyl]-4-methyl-tetrazol-5-one] |  |  | 0 | 1 | 1 | 32 |  | 11 | 49 | 14 | 1 |
